According to patent US20040224958A1, “Pyridopyrimidinone derivatives for treatment of neurodegenerative disease” (priority 2000, published 2004):
Like-named read-outs stand apart in the source and are kept apart here.

Experiments:
cdc2/cyclinB = cdc2/cyclinB (Homo sapiens, UniProt P06493); assay: Cyclin-Dependent Kinase Assay cdc2/cyclinB
Cdk5/p25 = Cdk5/p25 (Homo sapiens, UniProt Q00535); assay: Cyclin-Dependent Kinase 5 High Throughput Screening (cdk5-HTS) Assay; assay type: biochemical; conditions: high throughput screen
Outline: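 Cdk5/p25 (1.0 μg/mL) phosphorylates GST-RbCOOH (20 μg/mL) in 50 mM Tris pH 7.4 with 10 mM MgCl2 and 20 μM ATP spiked with [γ33P]ATP, 30 min at room temperature. After EDTA stop, substrate captured on glutathione-coated plates; 33P incorporation counted by scintillation; IC50 determined.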

cdk2/cyclinA = cdk2/cyclinA (Homo sapiens, UniProt P24941); assay: Cyclin-Dependent Kinase Assay cdk2/cyclinA
cdk2/cyclinE = cdk2/cyclinE (Homo sapiens, UniProt P24941); assay: Cyclin-Dependent Kinase Assay cdk2/cyclinE
cdk4/D = cdk4/D (Homo sapiens, UniProt P11802); assay: Cyclin-Dependent Kinase 4 (cdk4) Assay; assay type: biochemical; conditions: read-out: cdk4/D IC50
Chain of cdk4/D (P11802 whole entry): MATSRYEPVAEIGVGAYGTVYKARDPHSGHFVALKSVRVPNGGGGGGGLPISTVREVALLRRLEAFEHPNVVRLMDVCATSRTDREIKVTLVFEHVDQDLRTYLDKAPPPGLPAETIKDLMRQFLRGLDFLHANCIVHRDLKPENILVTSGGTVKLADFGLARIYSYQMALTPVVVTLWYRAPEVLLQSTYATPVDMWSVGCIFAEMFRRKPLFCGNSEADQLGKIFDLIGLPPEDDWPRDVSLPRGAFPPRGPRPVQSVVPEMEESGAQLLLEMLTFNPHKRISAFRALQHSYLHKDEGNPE
Chain of cdk4/D (P24385 whole entry, further chain): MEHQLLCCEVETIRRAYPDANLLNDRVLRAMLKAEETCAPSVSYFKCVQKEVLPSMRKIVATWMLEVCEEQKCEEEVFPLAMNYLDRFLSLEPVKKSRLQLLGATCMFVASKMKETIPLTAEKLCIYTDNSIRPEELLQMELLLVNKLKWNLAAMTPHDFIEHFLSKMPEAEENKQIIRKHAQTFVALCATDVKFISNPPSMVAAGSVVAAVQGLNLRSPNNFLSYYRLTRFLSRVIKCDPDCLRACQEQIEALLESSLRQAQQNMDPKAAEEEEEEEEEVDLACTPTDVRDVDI

Chain of cdc2/cyclinB (P06493 whole entry): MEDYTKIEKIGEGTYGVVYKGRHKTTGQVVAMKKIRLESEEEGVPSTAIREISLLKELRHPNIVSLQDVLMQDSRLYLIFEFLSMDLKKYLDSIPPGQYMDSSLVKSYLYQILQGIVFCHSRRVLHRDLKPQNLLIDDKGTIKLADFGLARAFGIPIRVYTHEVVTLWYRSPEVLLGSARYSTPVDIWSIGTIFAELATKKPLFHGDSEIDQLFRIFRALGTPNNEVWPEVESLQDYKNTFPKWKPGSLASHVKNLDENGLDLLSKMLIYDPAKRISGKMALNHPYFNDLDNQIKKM
Chain of cdc2/cyclinB (P14635 whole entry, further chain): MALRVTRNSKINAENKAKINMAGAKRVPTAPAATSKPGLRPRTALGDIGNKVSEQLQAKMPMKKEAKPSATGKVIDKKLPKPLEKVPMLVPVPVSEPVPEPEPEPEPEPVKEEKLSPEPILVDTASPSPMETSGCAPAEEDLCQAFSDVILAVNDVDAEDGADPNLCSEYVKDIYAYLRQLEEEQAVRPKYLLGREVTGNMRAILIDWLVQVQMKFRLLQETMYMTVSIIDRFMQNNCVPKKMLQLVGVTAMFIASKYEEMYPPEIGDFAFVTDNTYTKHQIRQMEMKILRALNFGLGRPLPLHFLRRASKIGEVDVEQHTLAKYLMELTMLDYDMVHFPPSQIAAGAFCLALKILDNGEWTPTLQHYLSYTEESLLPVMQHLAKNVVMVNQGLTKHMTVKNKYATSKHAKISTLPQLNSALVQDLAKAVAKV

Row | Compound | IC50 (cdc2/cyclinB) [nM] | IC50 (Cdk5/p25) [nM] | IC50 (cdk2/cyclinA; cdk2/A IC50) [nM] | IC50 (cdk2/cyclinE; cdk2/E IC50) [nM] | IC50 (cdk4/D) [nM] | IC50 (cdc2/cyclinB; read-out: cdk1/B IC50) [nM] | IC50 (cdk2/cyclinA; read-out: cdk2/A IC50) [nM] | IC50 (cdk2/cyclinE; read-out: cdk2/E IC50) [nM]
1 | CCC(C)n1c(=O)ccc2cnc(Nc3ccc(Cl)c(C(F)(F)F)c3)nc21 (centres unmarked) [Example 468, 8-sec-Butyl-2-(4-chloro-3-trifluoromethyl-phenylamino)-8H-pyrido[2,3-d]pyrimidin-7-one] | 340 | 26.5 | 530 | 330 | 950 | – | – | –
2 | O=c1ccc2cnc(Nc3ccc4[nH]ccc4c3)nc2n1CC(F)(F)F [Example 593, 2-(1H-Indol-5-ylamino)-8-(2,2,2-trifluoro-ethyl)-8H-pyrido[2,3-d]pyrimidin-7-one] | 960 | 695 | 2700 | 1370 | 905 | – | – | –
3 | CC(C)n1c(=O)ccc2cnc(Nc3cc(Cl)c(O)c(Cl)c3)nc21 [Example 412, 2-(3,5-Dichloro-4-hydroxy-phenylamino)-8-isopropyl-8H-pyrido[2,3-d]pyrimidin-7-one] | 715 | 278 | 713 | 512 | 2000 | – | – | –
4 | CCCn1c(=O)ccc2cnc(Nc3ccc(Br)c(C(F)(F)F)c3)nc21 [Example 314, 2-(4-Bromo-3-trifluoromethyl-phenylamino)-8-propyl-8H-pyrido[2,3-d]pyrimidin-7-one] | 429 | 114 | 2370 | 520 | 2120 | – | – | –
5 | CCCCn1c(=O)ccc2cnc(Nc3ccc(Br)c(C(F)(F)F)c3)nc21 [Example 374, 2-(4-Bromo-3-trifluoromethyl-phenylamino)-8-butyl-8H-pyrido[2,3-d]pyrimidin-7-one] | 949 | 379 | 2880 | 668 | 2940 | – | – | –
6 | CC(C)(C)OC(=O)Nc1ccc(Nc2ncc3ccc(=O)n(CC4CC4)c3n2)cc1 [Example 565, [4-(8-Cyclopropylmethyl-7-oxo-7,8-dihydro-pyrido[2,3-d]pyrimidin-2-ylamino)-phenyl]-carbamic acid tert-butyl ester] | 365 | 290 | 510 | 193 | 385 | – | – | –
7 | Cn1c(=O)ccc2cnc(Nc3ccc(NC(=O)OC(C)(C)C)cc3)nc21 [Example 615, [4-(8-Methyl-7-oxo-7,8-dihydro-pyrido[2,3-d]pyrimidin-2-ylamino)-phenyl]-carbamic acid tert-butyl ester] | 1760 | 1140 | 3600 | 1530 | 3000 | – | – | –
8 | [4-(7-Oxo-8-propyl-7,8-dihydro-pyrido[2,3-d]pyrimidin-2-ylamino)-phenyl]-carbamic acid tert-butyl ester [Example 326] | – | 460 | – | – | 2100 | 995 | 2450 | 820
9 | O=C(O)c1cc(Nc2ncc3ccc(=O)n(C4CCCC4)c3n2)ccc1O [Example 560, 5-(8-Cyclopentyl-7-oxo-7,8-dihydro-pyrido[2,3-d]pyrimidin-2-ylamino)-2-hydroxy-benzoic acid] | 450 | 490 | 220 | 370 | 910 | – | – | –

Further lines, with some results ahead:

Row | IC50 (cdc2/cyclinB) [nM] | IC50 (Cdk5/p25) [nM] | IC50 (cdk2/cyclinA; cdk2/A IC50) [nM] | IC50 (cdk2/cyclinE; cdk2/E IC50) [nM] | IC50 (cdk4/D) [nM] | Compound | IC50 (cdc2/cyclinB; read-out: cdk1/B IC50) [nM] | IC50 (cdk2/cyclinA; read-out: cdk2/A IC50) [nM] | IC50 (cdk2/cyclinE; read-out: cdk2/E IC50) [nM]
10 | 83 | 23.5 | 200 | 90.7 | 620 | CCCCn1c(=O)ccc2cnc(Nc3ccc(OC)c(OC)c3)nc21 [Example 386, 8-Butyl-2-(3,4-dimethoxy-phenylamino)-8H-pyrido[2,3-d]pyrimidin-7-one] | – | – | –
11 | 180 | 120 | 310 | 210 | 270 | CCC(CC)n1c(=O)ccc2cnc(Nc3cc(F)cc(F)c3)nc21 [Example 510, 2-(3,5-Difluoro-phenylamino)-8-(1-ethyl-propyl)-8H-pyrido[2,3-d]pyrimidin-7-one] | – | – | –
12 | 49.5 | 68 | 200 | 47 | 170 | CCC(CC)n1c(=O)ccc2cnc(Nc3cccc([N+](=O)[O-])c3)nc21 [Example 498, 8-(1-Ethyl-propyl)-2-(3-nitro-phenylamino)-8H-pyrido[2,3-d]pyrimidin-7-one] | – | – | –
13 | 190 | 8 | 270 | 97 | 96 | CCC(C)n1c(=O)ccc2cnc(Nc3ccc(C)c(Cl)c3)nc21 (centres unmarked) [Example 467, 8-sec-Butyl-2-(3-chloro-4-methyl-phenylamino)-8H-pyrido[2,3-d]pyrimidin-7-one] | – | – | –
14 | 48 | 54 | 210 | 150 | 180 | CC1Nc2ccc(Nc3ncc4ccc(=O)n(C5CCCC5)c4n3)cc2C1C (centres unmarked) [Example 552, 8-Cyclopentyl-2-(2,3-dimethyl-2,3-dihydro-1H-indol-5-ylamino)-8H-pyrido[2,3-d]pyrimidin-7-one] | – | – | –
15 | 180 | 25 | 310 | 140 | 55 | Cc1ccc(Nc2ncc3ccc(=O)n(C4CCCC4)c3n2)cc1Cl [Example 545, 2-(3-Chloro-4-methyl-phenylamino)-8-cyclopentyl-8H-pyrido[2,3-d]pyrimidin-7-one] | – | – | –
16 | 51.5 | 37 | 105 | 52.7 | 330 | CCC(C)n1c(=O)ccc2cnc(Nc3cccc([N+](=O)[O-])c3)nc21 (centres unmarked) [Example 453, 8-sec-Butyl-2-(3-nitro-phenylamino)-8H-pyrido[2,3-d]pyrimidin-7-one] | – | – | –
17 | 101 | 63 | 152 | 36.3 | 415 | COc1ccc(Nc2ncc3ccc(=O)n(C4CCCCC4)c3n2)cc1OC [Example 613, 8-Cyclohexyl-2-(3,4-dimethoxy-phenylamino)-8H-pyrido[2,3-d]pyrimidin-7-one] | – | – | –
18 | 46 | 12.5 | 115 | 46.3 | 192 | CCC(CC)n1c(=O)ccc2cnc(Nc3ccc(OC)c(OC)c3)nc21 [Example 499, 2-(3,4-Dimethoxy-phenylamino)-8-(1-ethyl-propyl)-8H-pyrido[2,3-d]pyrimidin-7-one] | – | – | –
19 | 101 | 102 | 102 | 43 | 920 | O=c1ccc2cnc(Nc3cc(Cl)c(O)c(Cl)c3)nc2n1CC1CC1 [Example 568, 8-Cyclopropylmethyl-2-(3,5-dichloro-4-hydroxy-phenylamino)-8H-pyrido[2,3-d]pyrimidin-7-one] | – | – | –
20 | 39 | 83 | 120 | 56 | 2200 | CCC(CC)n1c(=O)ccc2cnc(Nc3cccc(O)c3)nc21 [Example 512, 8-(1-Ethyl-propyl)-2-(3-hydroxy-phenylamino)-8H-pyrido[2,3-d]pyrimidin-7-one] | – | – | –
21 | 89.5 | 19 | 145 | 60.7 | 44.5 | CCC(C)n1c(=O)ccc2cnc(Nc3ccc4[nH]ccc4c3)nc21 (centres unmarked) [Example 447, 8-sec-Butyl-2-(1H-indol-5-ylamino)-8H-pyrido[2,3-d]pyrimidin-7-one] | – | – | –
22 | 94.5 | 52 | 117 | 50 | 505 | O=c1ccc2cnc(Nc3ccc4[nH]nnc4c3)nc2n1CC1CC1 [Example 564, 2-(1H-Benzotriazol-5-ylamino)-8-cyclopropylmethyl-8H-pyrido[2,3-d]pyrimidin-7-one] | – | – | –
